Patent US5962533A, “Hydroxy polyamines” (priority 1996, dated 1999)
Several values for one entry are separate records, joined by “and”; a condition that tells them apart may be missing. Equal values may be shown once. Where a name gives a salt, the structure may show the parent alone. Read-outs that look alike come from different tables or passages of the source.

Key:
[1] = system: polyamine transport apparatus; experiment: Competition with radiolabeled spermidine for uptake into L1210 cells (Ki); type: cell-based, Murine; conditions: L1210 cells, estimated from Lineweaver-Burke plots, read-out: Ki, [3H]-spermidine transport
Procedure: The same cell line was utilized to evaluate the tetraamines's competition with radiolabeled spermidine for the polyamine uptake apparatus (Ki). The Ki values here are the concentrations of drugs required to inhibit the uptake of radioactive spermidine transport by 50% (Table 1).
Uptake Determinations. The polyamine derivatives were studied for their ability to compete with [^3 H]SPD or [^14 C]SPD for uptake into L1210 leukemia cells in vitro. Cell suspensions were incubated in 1 ml of RPMI-1640 containing 1, 2, 4, 6, 8 and 10 μm radiolabeled SPD alone or with the additional presence of 10, 25 and 50 μm polyamine analogue for 20 minutes at 37° C. At the end of the incubation period, tubes were centrifuged at 900 g for 5 minutes at 0-4° C. The pellet was washed twice with 5 ml of cold RPMI-1640 containing 1 mm SPD, dissolved in 200 μl of 1N NaOH at 60° C. for 1 hour, and neutralized with 1N HCl. The material was transferred to a vial for scintillation counting.

[2] = system: L1210 cells; experiment: L1210 growth inhibition, IC50 determinations; type: cell-based, Murine
Procedure: IC50 Determinations. Cells were grown in 25 cm^2 tissue culture flasks in a total volume of 10 ml. Cultures were treated while in logarithmic growth (0.5-1.0×10^5 cells/ml) with the polyamine derivative diluted in sterile water and filtered through a 0.2 μm filter.
After the indicated time periods, cells were removed from the incubator for counting. Cell number was determined by electronic particle counting (Model ZF coulter counter, Coulter Electronics, Hialeah, Fla.) and confirmed periodically with hemocytometer measurements.
The percentage of control growth was determined as follows: [formula]

[3] = system: L1210 cells; experiment: Polyamine pool analysis in analogue-treated L1210 cells (HPLC); type: cell-based, Murine; conditions: for PUT level relative to untreated controls / SPD level relative to untreated controls / SPM level relative to untreated controls: L1210 cells, control = 100%
Procedure: Polyamine Pool Analysis. While in logarithmic growth, cells were treated with the polyamine derivatives. […] Each supernatant was frozen at -20° C. until analysis by HPLC.

[4] = system: NMDA receptor; experiment: NMDA assay: specific [3H]MK-801 binding to washed rat cerebral cortical membranes; conditions: 100 μm L-glutamate, 100 μm glycine, 2 nm [3H]MK-801
Description: FIG. 4 depicts the effects of (HO)2 DEHSPM and DEHSPM on the NMDA receptor (MK-801 binding). Each data point represents the mean ±s.d. of three experiments. Each experiment was, in turn, performed in triplicate. "100% activity" is defined as the amount of specific MK-801 binding to washed rat cerebral cortical membranes in the presence of saturating concentrations of coagonists (100 μm L-glutamate, 100 μm glycine) and 2 nm [^3 H]MK-801.
NMDA Assay. The procedure for measuring specific binding of [^3 H]MK-801 to the N-methyl-D-aspartate receptor complex was a modification of the method of Ransom and Stec [J. Neurochem., Vol. 51, pages 830-836 (1988)]. Cerebral cortices from young male Sprague-Dawley rats (200-300 g) were homogenized with 10 volumes ice-cold 0.32M sucrose using a motor-driven glass/Teflon homogenizer. The homogenate was centrifuged at 1,000 g for 10 minutes and the pellet was discarded. The supernatant was then centrifuged at 18,000 g for 20 minutes. The 18,000 g pellet was then resuspended in 10 volumes buffer A (5 mm Tris-HCl, pH 7.7) at 4° C., homogenized using high-intensity ultrasound and centrifuged at 8,000 for 20 minutes. The supernatant and upper buffy coat of the pellet were combined and centrifuged at 50,000 g for 20 minutes. The pellet was then resuspended in 10 volumes buffer A and homogenized using high-intensity ultrasound. These resuspended membranes were then centrifuged at 50,000 g, discarding the supernatant. The membranes were washed in this manner an additional three times and stored as a frozen suspension at -80° C. for at least 18 hours, but no longer than 2 weeks before use.
For binding experiments, frozen membranes were thawed, pelleted at 50,000 g for 20 minutes and washed as described above, except that 20 volumes of buffer A were used for resuspension, for a total of four times. The final pellet was resuspended in buffer B (5 mm Tris-HCl, pH 7.5) at 23° C. The binding assay mixture was 1.00 ml buffer B containing 200-300 μg membrane protein, 100 μm L-glutamate, 100 μm glycine, 2 nm [^3 H]MK-801 and tetraamine at the following concentrations: 0 ("100%+L-glu,+gly-Control") and 0.05, 0.1, 0.5, 1, 5, 10, 50, 100, 500 and 1,000 μm. Non-specific binding was determined using 100 μm MK-801.
Binding assays were performed in triplicate at 23° C. for one hour and were terminated by filtration through Whatman GF/B glass fiber filters followed by three 4.0 ml rinses of ice-cold buffer B using a Brandel M-48 Cell Harvester.

[5] = Chronic toxicity, one dose per day for five days; type: in vivo
Procedure: In the chronic toxicity regimen, mice were administered the polyamine analogue as one dose per day for five days. Appetite, weight and overall physical appearance were recorded at the time of each injection. After the treatment regimen had been completed, the animals were observed an additional 10 days. The chronic toxicity dosing regimen was set up so that at least one test group was presented with a high fraction of lethalities.

[6] = system: castor oil-induced diarrhea; experiment: Castor oil-induced diarrhea; type: in vivo, rat
Description: Castor Oil-Induced Diarrhea. Male Sprague-Dawley rats (350-400 g) were fasted overnight in hanging wire cages and allowed free access to water.

[7] = Acute toxicity, single intraperitoneal injection; conditions: 325 mg/kg intraperitoneal, five female CD-1 mice
[8] = 3.5 μm analogue, listed as (OH)2 DEHSPM

CCNCC[C@@H](O)CNCCCCNC[C@H](O)CCNCC [(HO)2 DEHSPM, N^1,N^14 -Diethyl-3(R),12(R)-dihydroxyhomospermine tetrahydrochloride]
Ki ([1]; listed as (OH)2 -DEHSPM): 1800 nM
Ki [1]: 2000 nM and 1800 nM
IC50 ([2]; Mus musculus, L1210, 96 h, read-out: IC50 96 h, L1210 cells, 96 h): 70 nM
IC50 ([2]; Mus musculus, read-out: IC50 48 h, L1210 cells, 48 h): 600 nM
IC50 ([2]; read-out: IC50 96 h, L1210 cells, 96 h): 50 to 90 nM
PUT level relative to untreated controls ([3]; 0.7 μm analogue): 45%
SPD level relative to untreated controls ([3]; 0.7 μm analogue): 57%
SPM level relative to untreated controls ([3]; 0.7 μm analogue): 96%
PUT level relative to untreated controls ([3]; 3.5 μm analogue): below detectable limits
SPD level relative to untreated controls ([3]; 3.5 μm analogue): below detectable limits
SPM level relative to untreated controls ([3]; 3.5 μm analogue): 60%
PUT level relative to untreated controls [3, 8]: 0%
SPD level relative to untreated controls [3, 8]: 0%
SPM level relative to untreated controls [3, 8]: 68%
N-deethylation by L1210 cells ([3]; in vitro conditions): do not N-deethylate
concentration showing agonist activity on MK-801 binding [4]: 0.5-1.0 μm
concentrations of maximal antagonism of MK-801 binding [4]: ≥ 50 μm
concentrations showing marked antagonist activity on MK-801 binding [4]: above 5 μm
# deaths/# animals ([5]; 70 mg/kg per day×5 days): 0/5
# deaths/# animals ([5]; 80 mg/kg per day×5 days): 0/5
# deaths/# animals ([5]; 90 mg/kg per day×5 days): 0/10
# deaths/# animals ([5]; 100 mg/kg per day×5 days): 1/5
# deaths/# animals ([5]; 120 mg/kg per day×5 days): 2/5
deaths ([5]; 20, 40 and 60 mg/kg per day×5 days, groups of six animals): No deaths
LD40 ([5]; mice): 120 mg/kg per day×5 days
necropsy conclusion in severely affected animals ([5]; mouse, in vivo): potently blocks gastric transport
LD50 ([5]; mouse, in vivo, mice, subchronic regimen, read-out: LD50 estimated from the slope of the toxicity curve): 130 mg/kg
prevention of castor oil-induced diarrhea ([6]; 1 mg/kg, rat): not an effective anti-diarrheal agent
prevention of castor oil-induced diarrhea ([6]; 2.5 mg/kg, rat, six hour observation): partially effective
prevention of castor oil-induced diarrhea ([6]; 5 mg/kg subcutaneous, rat, six hour assay): as effective as DEHSPM at preventing diarrhea
prevention of castor oil-induced diarrhea ([6]; 18 kg/mg, rat): effectively prevented the onset of diarrhea
minimal effective dose ([6]; Rattus norvegicus, sc, read-out: minimum effective dose for prevention of diarrhea): 5 mg/kg
stool output / diarrhea during 6 hour assay (FIG. 8) ([6]; subcutaneous injection 30 minutes before castor oil 5 ml/kg, rat): virtually no stool output
deaths after single dose [7]: Three of the five animals died
